Experimental data reported in PubChem BioAssay (NCI).
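Compound exposure: 48 hours, 5 concentrations, 96-well plates. GI50 = concentration required for 50% inhibition of growth. TGI is the concentration that stops growth completely.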

Key:
Assay in all cases: NCI tumour cell line growth inhibition, 48 h
CCRF-CEM leukemia = system: CCRF-CEM leukemia
A498 renal = system: A498 renal
UACC-257 melanoma = system: UACC-257 melanoma
NCI-H23 lung = system: NCI-H23 lung
SK-OV-3 ovarian = system: SK-OV-3 ovarian
SF-268 CNS = system: SF-268 CNS
UACC-62 melanoma = system: UACC-62 melanoma
OVCAR-4 ovarian = system: OVCAR-4 ovarian
HCT-15 colon = system: HCT-15 colon
SNB-75 CNS = system: SNB-75 CNS
CAKI-1 renal = system: CAKI-1 renal
TK-10 renal = system: TK-10 renal
T-47D breast = system: T-47D breast
OVCAR-5 ovarian = system: OVCAR-5 ovarian
SN12C renal = system: SN12C renal
EKVX NSCLC = system: EKVX NSCLC
HOP-92 NSCLC = system: HOP-92 NSCLC
HS 578T breast = system: HS 578T breast
NCI-H522 lung = system: NCI-H522 lung
SK-MEL-28 melanoma = system: SK-MEL-28 melanoma
M14 melanoma = system: M14 melanoma
SK-MEL-2 melanoma = system: SK-MEL-2 melanoma
K-562 leukemia = system: K-562 leukemia
MOLT-4 leukemia = system: MOLT-4 leukemia
HL-60(TB) leukemia = system: HL-60(TB) leukemia
HCC-2998 colon = system: HCC-2998 colon
RXF 393 renal = system: RXF 393 renal
HCT-116 colon = system: HCT-116 colon
NCI/ADR-RES ovarian = system: NCI/ADR-RES ovarian
ACHN renal = system: ACHN renal
DU-145 prostate = system: DU-145 prostate
SF-539 CNS = system: SF-539 CNS
SR leukemia = system: SR leukemia
COLO 205 colon = system: COLO 205 colon
UO-31 renal = system: UO-31 renal
IGROV1 ovarian = system: IGROV1 ovarian
HT29 colon = system: HT29 colon
KM12 colon = system: KM12 colon
SNB-19 CNS = system: SNB-19 CNS
MDA-MB-231 breast = system: MDA-MB-231 breast
MDA-MB-435 = system: MDA-MB-435
MDA-MB-468 breast = system: MDA-MB-468 breast
SW-620 colon = system: SW-620 colon
MALME-3M melanoma = system: MALME-3M melanoma
RPMI-8226 leukemia = system: RPMI-8226 leukemia
LOX IMVI melanoma = system: LOX IMVI melanoma
SK-MEL-5 melanoma = system: SK-MEL-5 melanoma

Cc1ccc2c(c1)nc(-c1ccccc1)n2CC(=O)N=Nc1c(O)[nH]c2ccc(Cl)cc12
GI50 (CCRF-CEM leukemia): 2410 nM
TGI (CCRF-CEM leukemia): 52.9 µM
GI50 (A498 renal): 1910 nM
TGI (A498 renal): 3.93 µM
GI50 (UACC-257 melanoma): 1860 nM
TGI (UACC-257 melanoma): 3.77 µM
GI50 (NCI-H23 lung): 1700 nM
TGI (NCI-H23 lung): 3.35 µM
GI50 (SK-OV-3 ovarian): 2110 nM
TGI (SK-OV-3 ovarian): 4.44 µM
GI50 (SF-268 CNS): 2360 nM
TGI (SF-268 CNS): 6.49 µM
GI50 (UACC-62 melanoma): 1750 nM
TGI (UACC-62 melanoma): 3.45 µM
GI50 (OVCAR-4 ovarian): 2370 nM
TGI (OVCAR-4 ovarian): 5.93 µM
GI50 (HCT-15 colon): 1810 nM
TGI (HCT-15 colon): 3.57 µM
GI50 (SNB-75 CNS): 1520 nM
TGI (SNB-75 CNS): 3.39 µM
GI50 (CAKI-1 renal): 2180 nM
TGI (CAKI-1 renal): 6.64 µM
GI50 (TK-10 renal): 2790 nM
TGI (TK-10 renal): 7.18 µM
GI50 (T-47D breast): 1940 nM
TGI (T-47D breast): 5.14 µM
GI50 (OVCAR-5 ovarian): 2910 nM
TGI (OVCAR-5 ovarian): 9.28 µM
GI50 (SN12C renal): 1780 nM
TGI (SN12C renal): 3.54 µM
GI50 (EKVX NSCLC): 1610 nM
TGI (EKVX NSCLC): 3.71 µM
GI50 (HOP-92 NSCLC): 1570 nM
TGI (HOP-92 NSCLC): 3.76 µM
GI50 (HS 578T breast): 2090 nM
TGI (HS 578T breast): 6.14 µM
GI50 (NCI-H522 lung): 1670 nM
TGI (NCI-H522 lung): 3.38 µM
GI50 (SK-MEL-28 melanoma): 1880 nM
TGI (SK-MEL-28 melanoma): 3.52 µM
GI50 (M14 melanoma): 2170 nM
TGI (M14 melanoma): 4.77 µM
GI50 (SK-MEL-2 melanoma): 10.5 µM
TGI (SK-MEL-2 melanoma): 25 µM
GI50 (K-562 leukemia): 3.13 µM
TGI (K-562 leukemia): > 100 µM
GI50 (MOLT-4 leukemia): 2390 nM
TGI (MOLT-4 leukemia): 11.5 µM
GI50 (HL-60(TB) leukemia): 4.62 µM
TGI (HL-60(TB) leukemia): 29.8 µM
GI50 (HCC-2998 colon): 1790 nM
TGI (HCC-2998 colon): 3.47 µM
GI50 (RXF 393 renal): 1500 nM
TGI (RXF 393 renal): 3.04 µM
GI50 (HCT-116 colon): 2480 nM
TGI (HCT-116 colon): 6.21 µM
GI50 (NCI/ADR-RES ovarian): 1840 nM
TGI (NCI/ADR-RES ovarian): 3.55 µM
GI50 (ACHN renal): 1610 nM
TGI (ACHN renal): 3.31 µM
GI50 (DU-145 prostate): 2530 nM
TGI (DU-145 prostate): 5.8 µM
GI50 (SF-539 CNS): 1690 nM
TGI (SF-539 CNS): 3.29 µM
GI50 (SR leukemia): 3.41 µM
TGI (SR leukemia): > 100 µM
GI50 (COLO 205 colon): 2670 nM
TGI (COLO 205 colon): 7 µM
GI50 (UO-31 renal): 1380 nM
TGI (UO-31 renal): 3.36 µM
GI50 (IGROV1 ovarian): 1690 nM
TGI (IGROV1 ovarian): 3.38 µM
GI50 (HT29 colon): 1840 nM
TGI (HT29 colon): 3.76 µM
GI50 (KM12 colon): 2950 nM
TGI (KM12 colon): 9.49 µM
GI50 (SNB-19 CNS): 2130 nM
TGI (SNB-19 CNS): 5.55 µM
GI50 (MDA-MB-231 breast): 1830 nM
TGI (MDA-MB-231 breast): 3.52 µM
GI50 (MDA-MB-435): 2380 nM
TGI (MDA-MB-435): 5.44 µM
GI50 (MDA-MB-468 breast): 1340 nM
TGI (MDA-MB-468 breast): 2770 nM
GI50 (SW-620 colon): 2070 nM
TGI (SW-620 colon): 4.43 µM
GI50 (MALME-3M melanoma): 1870 nM
TGI (MALME-3M melanoma): 4.07 µM
GI50 (RPMI-8226 leukemia): 2780 nM
TGI (RPMI-8226 leukemia): 10.4 µM
GI50 (LOX IMVI melanoma): 1570 nM
TGI (LOX IMVI melanoma): 2980 nM
GI50 (SK-MEL-5 melanoma): 2010 nM
TGI (SK-MEL-5 melanoma): 4.92 µM
